Source: paper PMC6642116, “Structural and functional analyses of hepatitis B virus X protein BH3-like domain and Bcl-xL interaction” (Nature Communications, 2019)

What was measured:
Format in all cases: cell-based
[1] = system: HBV replication from pHBV1.3-Xnull replicon in HepG2 cells; assay: HBV production rescue assay, PEP-1 delivered peptides; settings: HepG2 + pHBV1.3-Xnull, peptide/PEP-1, 48 h
From the text: Fig. 3 The HBx-BH3-like domain is critical for HBV production in HepG2 cells. a–e C-terminal biotinylated HBx-aa113–135 peptides (both wild-type (WT) and the W120A/L123A double mutant) were delivered into HepG2 cells transfected with pHBV1.3-Xnull using PEP-1 nanoparticles (Methods) and analyzed by streptavidin-FITC (fluorescein isothiocyanate) for transfection efficiency (a). Scale bar is 50 μm. An unrelated 23-aa peptide was used as a control (Control). The intracellular expression levels of HBV core antigen (HBcAg (b) and the levels of HBV e-antigen (HBeAg) (c), HBV S-antigen (HBsAg) (d), and HBV DNA (e) in the culture medium collected from HepG2 cells were measured (Methods). The results are shown as fold change to the WT HBx-aa113–135 peptide (WT). f–i) HepG2 cells were co-transfected with pHBV1.3-Xnull and pTT22m-HBx-WT (WT), pHBV1.3-Xnull and pTT22m-HBx(W120A/L123A), or pHBV1.3-Xnull and the pTT22m vector control (Control). Intracellular expression levels of HBcAg (f) and the levels of HBeAg (g), HBsAg (h), and HBV DNA (i) in the culture medium from HepG2 cells were measured similarly. The results are shown as fold change to the combination of pHBV1.3-Xnull and pTT22m-HBx-WT (WT). Data shown represent mean ± SD. Significance is indicated on the top. **P < 0.01, ***P < 0.001, ****P < 0.0001; two-tailed unpaired t tests (n = 3 biologically independent samples). Source data are provided as a Source Data file
HepG2 cells were grown in Dulbecco’s modified Eagle’s medium (DMEM) with 10% Gibco fetal bovine serum. C-terminal biotinylated-labeled HBx peptides were transfected into HepG2 cells by pep-1[16], a peptide carrier for the delivery of biologically active proteins into mammalian cells. HBx peptides and pep-1 were firstly dissolved in DMEM to 1 mg/ml, then adjusted to 500 µl DMEM to a final concentration of 100 µg/ml, and incubated at 37 °C for 30 min in the tube. The incubated peptide mixture was added into pre-seeded HepG2 cells in a 24-well plate and incubated for another 30 min, and then washed five times by phosphate-buffered saline (PBS) to remove the free peptides. The transfected C-terminal biotinylated HBx peptides were detected by using streptavidin-FITC (fluorescein isothiocyanate) equipment (Thermo Fisher Scientific) following the standard immunostaining methods.
Transfection of plasmids into HepG2 cells was carried out using X-tremeGENE HP DNA Transfection Reagent (Roche), following the manufacturer’s protocol. A transfection efficiency of 20–30% could be achieved. Cells were pre-seeded 24 h before transfections. pHBV1.3-HBx-null plasmid was transfected into HepG2 cells for 6 h, then HBx-aa113–135, HBx-aa113–135-(W120A, L123A), or control peptide was transfected by pep-1 carrier and incubated for additional 48 h without the removal of peptides. The culture media of the HepG2 cells were harvest for analysis.
(§1) The levels of HBsAg, HBeAg, and HBcAg expression were measured by chemiluminescence, using Commercial Assay Kit (Wantai, Beijing, China). Northern blot analysis of HBV RNA, Southern blot analysis of HBV DNA, and real-time PCR quantification of HBV DNA are described in the Supplementary Methods.

[2] = system: HBV in HepG2.2.15 cells; assay: Inhibition of HBV in HepG2.2.15 cells by PEP-1 delivered peptides; settings: for HBV DNA: HepG2.2.15 culture medium, peptide via PEP-1, 48 h; for HBsAg in culture medium: HepG2.2.15, peptide via PEP-1, 48 h
Protocol: (§2) Fig. 6 The HBx-aa118–127 peptide, but not ABT-263, inhibits HBV replication and transcription in HepG2.2.15 cells. a HepG2.2.15 cells were treated with 125, 250, 500, and 1000 nM of ABT-263 for 2 days. Cytoplasmic HBV viral particles were isolated and the viral DNA replication intermediates were quantified (Methods). The results represent the fold change of the replicative intermediates in HepG2.2.15 cells from the indicated treatments, compared with those without treatment. b HepG2.2.15 cells were treated with the indicated concentrations of ABT-263 for 2 days. The lysate was analyzed by immunoblotting using antibodies to caspase-3 (CASP3) and GAPDH (glyceraldehyde 3-phosphate dehydrogenase). c, d The HBx-aa113–135, HBx-aa118–127, or the control peptides were delivered into HepG2.2.15 cells using PEP-1 nanoparticles (Methods). The levels of HBV DNA (c) and the levels of HBV S-antigen (HBsAg) expression (d) in culture medium collected from HepG2.2.15 cells were measured (Methods). The results are shown as fold change compared to that of the control peptide. e–g HepG2-NTCP cells were transfected with HBx118–127 peptide with concentration of […], and 50 μg/ml or unrelated control peptide during HBV infection (multiplicity of infection (MOI) = 200), respectively. e HBV e-antigen (HBeAg), f HBV DNA, and g cell viability were measured at day 8 after HBV infection. Data shown represent mean ± SD. Significance is indicated on the top. Not significant (ns): *P < 0.05, **P < 0.01; two-tailed unpaired t tests (n = 3 biologically independent samples). Source data are provided as a Source Data file
To evaluate the potential inhibitory effects of peptides on HBV replication and transcription in HepG2.2.15 cells, HepG2.2.15 cells were pre-seeded 24 h before peptides treatment. HBx-aa113–135, HBx-aa118–127, or control peptide was transfected through pep-1 carriers and incubated for additional 48 h without the removal of peptides. The culture media of HepG2.2.15 cells were then harvested for analysis.
as §1

[3] = system: HepG2-NTCP cells; assay: Cell viability (CCK8 assay) of HBV-infected HepG2-NTCP cells; parameters: Cell viability: unit not given here; settings: CCK8, unrelated control peptide, day 8
Protocol: as §2
HBx-aa118-127 peptide treatment.
obvious cytotoxicity at concentrations between 12.5-200 µg/mL (Fig. 6g). Taken together, […]

SSTTSTGPCKTCTTPAQGTSMFP-K-biotin [Control, equal-length unrelated control biotin-labeled peptide]
HBcAg in cells ([1]; replicate 1): 0.472 fold-change to WT | HBeAg in culture medium ([1]; replicate 1): 0.329 fold-change to WT | HBsAg in culture medium ([1]; replicate 1): 0.215 fold-change to WT | Secreted HBV DNA ([1]; replicate 1): 990600 Copies/mL | HBcAg in cells ([1]; replicate 2): 0.663 fold-change to WT | HBeAg in culture medium ([1]; replicate 2): 0.389 fold-change to WT | HBsAg in culture medium ([1]; replicate 2): 0.227 fold-change to WT | Secreted HBV DNA ([1]; replicate 2): 564700 Copies/mL | HBcAg in cells ([1]; replicate 3): 0.512 fold-change to WT | HBeAg in culture medium ([1]; replicate 3): 0.344 fold-change to WT | HBsAg in culture medium ([1]; replicate 3): 0.207 fold-change to WT | Secreted HBV DNA ([1]; replicate 3): 887700 Copies/mL | HBV DNA ([2]; replicate 1): 0.944 fold-change to control | HBV DNA ([2]; replicate 2): 1.019 fold-change to control | HBV DNA ([2]; replicate 3): 1.037 fold-change to control | HBsAg in culture medium ([2]; replicate 1): 1.097 fold-change to control | HBsAg in culture medium ([2]; replicate 2): 0.872 fold-change to control | HBsAg in culture medium ([2]; replicate 3): 1.030 fold-change to control | Cell viability ([3]; replicate 1): 102.557 | Cell viability ([3]; replicate 2): 97.209 | Cell viability ([3]; replicate 3): 100.234
